Test results: patent publication US12435091B2, “RNA-binding protein multimerization inhibitors and methods of use thereof” (THE UAB RESEARCH FOUNDATION, priority 2020, dated 2025)
In brackets after ≈: the same amount, converted by molar mass. Read-outs that look alike come from different tables or passages of the source.

Tests used:
AAK1 = AAK1 (Homo sapiens, UniProt Q2M2I8); test: SelectScreen kinase profiling, LanthaScreen Binding
Description: (§1) The kinase inhibitory potentials of compounds as described herein (e.g., SRI-42127 and SRI-41664) were evaluated by ThermoFisher Scientific's SelectScreen™ Kinase Profiling Service. The following kinase inhibitory assays were utilized: ZLYTE (Madison, WI) for NTRK1, PIM1, and cMET kinases; LanthaScreen Binding (Madison, WI) for AAK1 kinase; and Adapta (Madison, WI) for IRAK1 kinase.

in vitro = details: human, liver microsomes
Description: (§6) Selected compounds were assessed for their aqueous solubility, Log D and mouse and human liver microsomal stability.

HuR = target: T1, HuR (Homo sapiens, UniProt Q15717); test: cell-based split firefly luciferase-HuR dimerization assay; details: for IC50: read-out: HuR IC50
T1 construct: expressed in transfected cells; host or cells: U251 glioma cells, doxycycline-inducible constructs
T1 sequence (Q15717 whole entry): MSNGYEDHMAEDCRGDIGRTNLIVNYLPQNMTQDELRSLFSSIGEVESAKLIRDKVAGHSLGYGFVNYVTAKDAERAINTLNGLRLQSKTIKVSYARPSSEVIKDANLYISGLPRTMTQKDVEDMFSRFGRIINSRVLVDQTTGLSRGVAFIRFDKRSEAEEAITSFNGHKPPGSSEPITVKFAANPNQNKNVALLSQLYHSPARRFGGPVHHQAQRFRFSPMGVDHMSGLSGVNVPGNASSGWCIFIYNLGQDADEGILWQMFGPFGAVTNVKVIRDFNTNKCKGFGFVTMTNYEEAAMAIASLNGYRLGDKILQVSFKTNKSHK
Description: (§2) The oncogenic activity of HuR is driven by subcellular localization into the cytoplasm and formation of multimers of HuR. To develop cell based assays to characterize the ability of small molecules to disrupt this process, a split luciferase assay detecting the formation of HuR dimers was developed. The assays were performed in 96 well plates with clear bottom (Corning Inc., Corning, NY). Cells with designed constructs (30,000-50,000 in number) were plated per well; the constructs were induced by doxycycline (0.75 ug/ml) for 48 hours. The evaluated compounds at different concentrations and the corresponding vehicle as the control were administered for 6 hours. The luminescence signals were detected by using InfinitiM200 plate reader (TECAN, Morrisville, NC) in the presence of the luciferase substrate luciferin (D-Luciferin, potassium salt), which was purchased from GoldBio (St Louis, MO). A multichannel pipette (XL 3000I™, Denville Scientific, South Plainfield, NJ) was used in all procedures to ensure the experiment quality.
The assay used the coding sequence of HuR in frame with the N-terminus of firefly luciferase or the C-terminus as depicted in FIG. 2A. When HuR forms dimers in this case, luciferase is generated and with luciferin present, luminescence is generated.
(§3) Squares represent luminescence signal from reporter representing HuR dimers (U251 cells co-expressing HuR-Nluc and HuR-Cluc constructs); circles represent luminescence signal from control reporter (U251 cells expressing Fluc construct). Results are shown as mean+SD.

Log D at pH 7.4 = format: physicochemical
Description: as §6

IRAK1 = IRAK1 (Homo sapiens, UniProt P51617); test: SelectScreen kinase profiling, Adapta; format: biochemical
IRAK1, sequence (P51617 whole entry): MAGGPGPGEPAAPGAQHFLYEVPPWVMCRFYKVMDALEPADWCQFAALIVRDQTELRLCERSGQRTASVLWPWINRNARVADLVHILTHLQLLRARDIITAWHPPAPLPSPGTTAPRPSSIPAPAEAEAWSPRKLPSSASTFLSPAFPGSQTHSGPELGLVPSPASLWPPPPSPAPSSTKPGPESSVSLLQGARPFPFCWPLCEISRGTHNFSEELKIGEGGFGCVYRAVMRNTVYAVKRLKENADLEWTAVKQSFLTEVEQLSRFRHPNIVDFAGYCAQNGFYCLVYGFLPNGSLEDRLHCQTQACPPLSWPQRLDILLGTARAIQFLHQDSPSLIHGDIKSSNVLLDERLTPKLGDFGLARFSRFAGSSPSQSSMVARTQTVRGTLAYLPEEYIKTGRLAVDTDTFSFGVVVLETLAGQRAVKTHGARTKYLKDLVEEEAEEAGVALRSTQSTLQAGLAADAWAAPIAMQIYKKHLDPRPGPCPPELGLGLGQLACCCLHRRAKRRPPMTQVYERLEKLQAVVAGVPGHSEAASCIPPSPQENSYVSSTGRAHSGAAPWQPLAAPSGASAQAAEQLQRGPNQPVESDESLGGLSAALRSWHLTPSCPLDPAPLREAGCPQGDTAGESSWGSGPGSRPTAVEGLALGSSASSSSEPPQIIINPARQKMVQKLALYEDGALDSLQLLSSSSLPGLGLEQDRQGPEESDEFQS
Description: as §1

[1] = Mouse liver microsomal stability in vitro; format: in vitro ADME; details: liver microsomes, read-out: MLM t1/2
Description: as §6

TRKA (NTRK1) = TRKA (NTRK1) (Homo sapiens, UniProt P04629); test: SelectScreen kinase profiling, ZLYTE; format: biochemical
TRKA (NTRK1), sequence (P04629 33-796): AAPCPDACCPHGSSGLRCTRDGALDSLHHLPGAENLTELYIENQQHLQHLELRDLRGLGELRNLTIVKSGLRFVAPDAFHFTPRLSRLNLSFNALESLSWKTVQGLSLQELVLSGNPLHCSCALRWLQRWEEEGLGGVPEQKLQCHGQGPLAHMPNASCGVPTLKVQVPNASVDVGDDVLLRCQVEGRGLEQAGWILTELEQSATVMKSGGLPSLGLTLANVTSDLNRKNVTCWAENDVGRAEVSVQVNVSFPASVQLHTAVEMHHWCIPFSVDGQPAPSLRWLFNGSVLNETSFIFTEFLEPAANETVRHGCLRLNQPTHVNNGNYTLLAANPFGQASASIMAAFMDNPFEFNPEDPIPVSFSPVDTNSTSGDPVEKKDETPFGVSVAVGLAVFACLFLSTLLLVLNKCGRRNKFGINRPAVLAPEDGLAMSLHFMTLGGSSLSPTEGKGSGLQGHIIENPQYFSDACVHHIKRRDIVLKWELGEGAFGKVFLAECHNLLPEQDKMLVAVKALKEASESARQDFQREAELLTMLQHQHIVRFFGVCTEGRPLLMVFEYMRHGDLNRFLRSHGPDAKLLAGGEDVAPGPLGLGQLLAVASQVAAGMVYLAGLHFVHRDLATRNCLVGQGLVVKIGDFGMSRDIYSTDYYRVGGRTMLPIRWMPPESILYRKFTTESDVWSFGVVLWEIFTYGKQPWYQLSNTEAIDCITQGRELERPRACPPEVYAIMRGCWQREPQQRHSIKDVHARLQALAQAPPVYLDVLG
Description: as §1

cMET = cMET (Homo sapiens, UniProt P08581); test: SelectScreen kinase profiling, ZLYTE; format: biochemical
cMET, sequence (P08581 25-1390): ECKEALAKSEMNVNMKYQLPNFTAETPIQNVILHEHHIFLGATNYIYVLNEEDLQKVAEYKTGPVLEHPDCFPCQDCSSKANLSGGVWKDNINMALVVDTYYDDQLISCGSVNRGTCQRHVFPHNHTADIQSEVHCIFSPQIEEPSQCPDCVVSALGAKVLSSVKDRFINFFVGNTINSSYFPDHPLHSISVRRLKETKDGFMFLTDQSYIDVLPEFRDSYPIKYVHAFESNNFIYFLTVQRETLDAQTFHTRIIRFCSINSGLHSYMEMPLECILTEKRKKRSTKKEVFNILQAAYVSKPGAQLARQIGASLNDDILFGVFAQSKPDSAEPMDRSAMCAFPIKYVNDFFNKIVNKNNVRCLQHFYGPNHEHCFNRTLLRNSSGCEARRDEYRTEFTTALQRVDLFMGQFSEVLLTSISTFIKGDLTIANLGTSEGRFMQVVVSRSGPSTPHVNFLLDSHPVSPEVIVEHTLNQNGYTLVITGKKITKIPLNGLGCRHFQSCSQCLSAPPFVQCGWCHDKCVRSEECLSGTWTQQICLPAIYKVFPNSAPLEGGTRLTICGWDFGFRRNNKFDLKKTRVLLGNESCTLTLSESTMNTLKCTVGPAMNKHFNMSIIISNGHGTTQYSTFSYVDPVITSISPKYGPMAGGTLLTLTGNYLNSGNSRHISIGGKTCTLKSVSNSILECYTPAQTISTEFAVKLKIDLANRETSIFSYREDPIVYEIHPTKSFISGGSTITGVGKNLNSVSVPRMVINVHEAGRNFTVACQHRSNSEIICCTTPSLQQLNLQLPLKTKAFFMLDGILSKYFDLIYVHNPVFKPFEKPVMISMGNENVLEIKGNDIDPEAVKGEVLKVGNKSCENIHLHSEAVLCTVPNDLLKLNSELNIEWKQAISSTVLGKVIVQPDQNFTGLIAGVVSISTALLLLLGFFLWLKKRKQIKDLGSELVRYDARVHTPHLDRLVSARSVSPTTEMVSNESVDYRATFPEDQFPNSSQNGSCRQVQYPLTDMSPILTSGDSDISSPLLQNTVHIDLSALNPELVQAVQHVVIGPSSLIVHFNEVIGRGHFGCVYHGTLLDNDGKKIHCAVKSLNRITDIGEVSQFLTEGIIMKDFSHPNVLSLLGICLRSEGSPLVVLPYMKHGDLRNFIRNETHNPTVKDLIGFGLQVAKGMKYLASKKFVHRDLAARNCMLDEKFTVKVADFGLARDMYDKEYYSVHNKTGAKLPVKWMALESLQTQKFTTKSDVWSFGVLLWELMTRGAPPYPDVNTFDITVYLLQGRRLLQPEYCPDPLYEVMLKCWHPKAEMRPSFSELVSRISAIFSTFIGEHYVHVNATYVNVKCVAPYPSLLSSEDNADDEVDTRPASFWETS
Description: as §1

PIM1 = PIM1 (Homo sapiens, UniProt P11309); test: SelectScreen kinase profiling, ZLYTE; format: biochemical
PIM1, sequence (P11309 whole entry): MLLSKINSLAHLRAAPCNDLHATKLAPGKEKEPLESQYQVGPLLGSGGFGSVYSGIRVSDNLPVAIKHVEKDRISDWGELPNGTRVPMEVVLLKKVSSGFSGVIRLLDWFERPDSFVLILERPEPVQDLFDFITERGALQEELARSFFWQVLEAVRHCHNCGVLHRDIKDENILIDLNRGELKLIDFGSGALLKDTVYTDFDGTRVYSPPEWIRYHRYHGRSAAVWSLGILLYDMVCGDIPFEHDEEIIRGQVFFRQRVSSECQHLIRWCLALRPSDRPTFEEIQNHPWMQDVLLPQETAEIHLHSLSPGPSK
Description: as §1

[2] = aqueous solubility at pH 7.4; format: physicochemical; details: aqueous medium at pH 7.4, pH 7.4, aqueous buffer; read-out: Sol @ pH 7.4
Description: as §6

[3] = test system: U251 cells expressing Fluc construct; test: control Fluc (full length luciferase) reporter assay in U251 cells; format: cell-based; details: Homo sapiens, U-251, 6 h, read-out: Fluc Imax % Inh; for inhibition at 50 µM: Concn 50 uM
Description: as §2, with “quality. […]” for “quality.”
as §3

[4] = test system: U251 and XD456 glioma cell lines; test: western blotting of glioma cell fractions (Bcl2, Mcl1, SOX2, cleaved PARP, cleaved caspase 3); format: cell-based; details: U251 and XD456, 10 uM for 48 hours
Description: Western blotting was performed. Nuclear and cytoplasmic protein fractionations were performed using NE-PER Nuclear and Cytoplasmic extraction reagents (ThermoFisher Scientific). Anti-lamin A/C and anti-Tubulin alpha antibodies were utilized to verify nuclear and cytoplasmic fractions, respectively. Antibodies against lamin A/C, cleaved PARP, cleaved caspase 3, SOX2, and Mcl1 were purchased from Cell Signaling Technology (Danvers, MA). Anti-Tubulin alpha antibody was purchased from Sigma-Aldrich. Antibodies against HuR, actin, and Bcl2 were purchased from Santa Cruz Biotechnology (Santa Cruz, CA). Polyclonal anti-HuR antibody for HuR/mRNA co-immunoprecipitation was purchased from MBL International (Woburn, MA).
In FIG. 8B, representative western blots confirm reduction of Bcl2 and Mcl1 proteins in cytoplasmic fractions of U251 and XD456 cell lines following treatment with compounds as described herein, 10 uM for 48 hours. SOX2 reduction in nuclear fractions indicates decrease of tumorigenicity of cell lines after treatment with compounds as described herein. Actin and Lamin A/C were utilized for data normalization in cytoplasmic and nuclear fractions, respectively.
In FIG. 8C, representative western blots illustrate appearances of cleaved PARP and cleaved caspase 3 in glioma cell lines after treatment with compounds as described herein, 10 uM for 48 hours. […]

LN229 glioma cell line = test: PrestoBlue cell viability assay; format: cell-based; details: Homo sapiens, LN-229; LN229, 48 hours of treatment
Description: (§4) PrestoBlue cell viability reagent (ThermoFisher Scientific; Waltham, MA) was used for cell viability assays. The inhibitory dose-response data were normalized to the control (treatment with vehicle); the inhibitory dose-response curves, which were fitted by using Boltzmann equation, and the corresponding IC50s were generated by using OriginPro software (OriginLab Corporation, CA).
(§5) The glioma suppressive potentials of the new class of HuR multimerization inhibitors were evaluated by utilizing SRI-41664 and SRI-42127 compounds in several cell-based assays. First, it was confirmed that the SRI-41664 and SRI-42127 compounds are cytotoxic for established and PDGx cell lines. FIG. 5A illustrates the inhibitory dose responses of SRI-41664 and SRI-42127 compounds in the established U251, LN229, and the PDGx XD456 glioma cell lines. […] An HuR-overexpression approach was employed to confirm SRI-42127 inhibitory potency against HuR dimerization.

U251 glioma cell line = test: PrestoBlue cell viability assay; format: cell-based; details: Homo sapiens, U-251, 48 h, U251, 48 hours of treatment; read-out: IC50 cell viability
Description: as §4, §5

[5] = test system: PDGx XD456 glioma cell line; test: PrestoBlue cell viability assay; format: cell-based; details: Glioma cell; XD456, 48 hours of treatment
Description: as §4, §5

[6] = split luciferase HuR dimerization assay, compounds administered for 6 hours
[7] = U251 cells co-expressing HuR-Nluc and HuR-Cluc, 6 hours of treatment

AAK1, sequence (Q2M2I8 whole entry): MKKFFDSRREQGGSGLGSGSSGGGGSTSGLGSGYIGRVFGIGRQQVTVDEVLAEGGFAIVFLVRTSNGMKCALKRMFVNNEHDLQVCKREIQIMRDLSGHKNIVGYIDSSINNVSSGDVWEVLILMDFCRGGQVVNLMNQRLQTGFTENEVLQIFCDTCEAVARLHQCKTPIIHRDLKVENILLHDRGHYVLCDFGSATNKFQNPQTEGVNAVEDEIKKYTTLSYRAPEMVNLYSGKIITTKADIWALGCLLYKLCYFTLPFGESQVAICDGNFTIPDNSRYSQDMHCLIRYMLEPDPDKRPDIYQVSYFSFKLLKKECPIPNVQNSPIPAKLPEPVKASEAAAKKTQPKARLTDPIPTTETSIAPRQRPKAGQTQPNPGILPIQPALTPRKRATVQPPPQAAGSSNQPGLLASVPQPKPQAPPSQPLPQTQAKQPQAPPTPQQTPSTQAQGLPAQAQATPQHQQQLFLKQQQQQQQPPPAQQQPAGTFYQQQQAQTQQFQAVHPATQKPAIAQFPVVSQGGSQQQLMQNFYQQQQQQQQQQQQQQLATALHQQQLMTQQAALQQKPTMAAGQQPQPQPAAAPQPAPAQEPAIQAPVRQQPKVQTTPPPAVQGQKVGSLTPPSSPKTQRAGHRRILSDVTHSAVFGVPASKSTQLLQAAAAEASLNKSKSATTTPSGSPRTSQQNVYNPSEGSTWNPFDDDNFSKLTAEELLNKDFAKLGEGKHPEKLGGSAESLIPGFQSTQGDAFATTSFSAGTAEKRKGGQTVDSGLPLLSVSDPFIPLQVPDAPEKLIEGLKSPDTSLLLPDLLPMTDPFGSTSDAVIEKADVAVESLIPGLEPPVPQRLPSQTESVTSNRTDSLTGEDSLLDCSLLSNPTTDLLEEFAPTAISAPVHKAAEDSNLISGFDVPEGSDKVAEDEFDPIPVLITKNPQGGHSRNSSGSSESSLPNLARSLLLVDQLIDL

Structure (SMILES)	IC50 (AAK1) [µM]	half-life (in vitro) [min]	HuR inhibition activity (in words) (HuR)	IC50 (HuR; [6]) [µM]	logD (Log D at pH 7.4)	IC50 (IRAK1) [µM]	half-life [1] [min]	IC50 (TRKA (NTRK1)) [µM]	IC50 (cMET) [µM]	IC50 (PIM1) [µM]	solubility [2] [µM]	inhibition at 50 µM [3] [%]	IC50 (HuR; [7]) [µM]	further results
CCCN(c1ccc2ncc(-c3ccc4cn[nH]c4c3)n2n1)C1CCOCC1 [Compound 27]	13	> 300	inactive	> 50	0.4	> 30	9.8	> 30	> 30	> 30	65.3 (≈ 24.6 µg/mL)			
c1cc2cn[nH]c2cc1-c1cnc2ccc(NC3CCOCC3)nn12 [Compound 5]	0.03					0.3		0.099	5.98	0.829		38		Bcl2 and Mcl1 protein levels in cytoplasmic fractions [4]: dramatic reduction; cleaved caspase 3 and cleaved PARP (apoptosis) [4]: appearances of cleaved caspase 3 and cleaved PARP; IC50 (LN229 glioma cell line): 3.8 ± 0.5 µM; IC50 (U251 glioma cell line): 3.4 ± 0.5 µM; IC50 [5]: 4.8 ± 1.1 µM
CCN(c1ccc2ncc(-c3ccc4cn[nH]c4c3)n2n1)C1CCOCC1 [Compound 26]	15.7		inactive	> 50		> 30		> 30	> 30	> 30				
CC1(C)CC(Nc2ccc3ncc(-c4ccc5[nH]ncc5c4)n3n2)CCO1 (stereo not shown) [Compound 45, N-(2,2-Dimethyltetrahydro-2H-pyran-4-yl)-3-(1H-indazol-5-yl)imidazo[1,2-b]pyridazin-6-amine]		7.2	potent activity	1.1	> 4.06		8.7				3.4 (≈ 1.23 µg/mL)	25	1.1	HuR N/C Imax % Inh (HuR; Concn 50 uM): 92%
CCCN(C)c1ccc2ncc(-c3ccc4cn[nH]c4c3)n2n1 [Compound 24, 3-(1H-Indazol-6-yl)-N-methyl-N-propylimidazo[1,2-b]pyridazin-6-amine]		9.7		2.2	> 4.18		3.1				10.9 (≈ 3.34 µg/mL)		2.2	inhibition at 100 µM ([3]; Concn 100 uM): 10%; HuR N/C Imax % Inh (HuR; Concn 100 uM): 93%
